The target in this test is T1, V600E full-length B-Raf (Homo sapiens, UniProt P15056, V600E).
T1 construct: 1 μM FSBA-MEK and 20 nM V600E full-length B-Raf; made in house; host or cells: sf9 insect cells (baculovirus)
Nature of the test: B-Raf IC50 Assay (B-RAF V600E inhibition assay, Example A). In kind it is biochemical. The procedure, abridged: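 Full-length V600E B-Raf (20 nM, from Sf9 baculovirus) was preincubated 15 min with 1 μM FSBA-modified wild-type MEK in pH 7.2 Pipes/KCl/MgCl2 buffer, then started with 4 μM ATP plus [γ-33P]ATP. After 60 min at 22 °C, TCA-quenched product was filter-captured and 33P incorporation counted by scintillation.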

Setting [1] is: B-Raf V600E assay of Example A: less than about 1 μM, read-out: IC50.
Where [2] appears, read: incorporation of radio labeled phosphate from [γ-33P]ATP into FSBA-modified wild-type MEK, 4 μM ATP, 20 nM V600E full-length B-Raf, 60-minute incubation, 22° C., read-out: BRAF V600E IC50.
Where [3] appears, read: B-Raf V600E assay of Example A: less than 100 nM, read-out: IC50.

Where two headings read alike, the source gives them in different places. Some results are limits rather than exact numbers.

Data on 25 compounds can be found in patent publication US20120157439A1, “RAF INHIBITOR COMPOUNDS AND METHODS OF USE THEREOF” (GENENTECH, INC., priority 2009, published 2012).

T1 sequence (P15056 whole entry V600E): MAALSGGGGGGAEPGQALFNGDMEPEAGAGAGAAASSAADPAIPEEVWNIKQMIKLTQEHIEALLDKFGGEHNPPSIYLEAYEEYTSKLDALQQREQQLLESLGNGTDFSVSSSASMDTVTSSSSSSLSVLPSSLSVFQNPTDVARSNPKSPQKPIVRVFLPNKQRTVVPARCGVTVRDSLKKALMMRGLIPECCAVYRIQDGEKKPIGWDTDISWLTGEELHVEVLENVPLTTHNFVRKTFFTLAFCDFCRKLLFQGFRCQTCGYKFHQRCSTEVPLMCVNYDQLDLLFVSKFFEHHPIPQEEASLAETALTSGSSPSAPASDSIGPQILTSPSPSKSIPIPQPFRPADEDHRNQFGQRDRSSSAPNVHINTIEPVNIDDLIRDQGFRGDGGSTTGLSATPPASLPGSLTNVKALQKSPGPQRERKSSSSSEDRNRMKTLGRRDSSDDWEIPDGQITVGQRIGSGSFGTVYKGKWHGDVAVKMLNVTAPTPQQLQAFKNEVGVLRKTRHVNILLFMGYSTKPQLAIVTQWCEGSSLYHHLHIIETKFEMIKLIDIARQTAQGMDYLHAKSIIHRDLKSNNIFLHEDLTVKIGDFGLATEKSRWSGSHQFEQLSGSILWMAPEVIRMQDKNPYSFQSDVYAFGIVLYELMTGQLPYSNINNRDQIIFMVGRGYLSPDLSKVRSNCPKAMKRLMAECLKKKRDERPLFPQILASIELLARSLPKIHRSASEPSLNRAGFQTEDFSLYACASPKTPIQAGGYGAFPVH

With `CCCS(=O)(=O)Nc1ccc(F)c(NC(=O)c2c[nH]c3cncnc23)c1F` [Example 113, 5H-Pyrrolo[3,2-d] pyrimidine-7-carboxylic acid [2,6-difluoro-3-(propane-1-sulfonylamino)-phenyl]-amide], the half-maximal inhibitory concentration (IC50) – broadly, the concentration that gives 50% inhibition – reads like this: under setting [1], less than 1000 nM; under setting [2], 353 nM.
Taken in the same sequence, the figures for `CCCS(=O)(=O)Nc1ccc(F)c(NC(=O)c2csc3c(NC4CCCC4)ncnc23)c1F` [Example 54, 4-Cyclopentyl-amino-thieno [3,2-d] pyrimidine-7-carboxylic acid [2,6-difluoro-3-(propane-1-sulfonylamino)-phenyl]-amide] were less than 1000 nM and 416 nM.
For the compound `CCCS(=O)(=O)Nc1ccc(F)c(NC(=O)c2cn(C)c3c(N)ncnc23)c1F` [Example 1, 4-amino-5-methyl-pyrrolo[3,2-d]pyrimidine-7-carboxylic acid[2,6-difluoro-3-(propane-1-sulfonylamino)-phenyl]-amide], the IC50 is, setting by setting: under setting [3], less than 100 nM; under setting [1], less than 1000 nM; under setting [2], 18.4 nM.
In the case of `CCCS(=O)(=O)Nc1cc(F)c(F)c(NC(=O)c2csc3c(NC4CCOCC4)ncnc23)c1F` [Example 94, 4-(Tetrahydro-pyran-4-ylamino)-thieno[3,2-d] pyrimidine-7-carboxylic acid [2,3,6-trifluoro-5-(propane-1-sulfonyl-amino)-phenyl]-amide], the IC50 is, setting by setting: under setting [1], less than 1000 nM; under setting [2], 704 nM.
For the compound `CCCS(=O)(=O)Nc1ccc(Cl)c(NC(=O)c2csc3cncnc23)c1F` [Example 111, Thieno[3,2-d]pyrimidine-7-carboxylic acid [6-chloro-2-fluoro-3-(propane-1-sulfonylamino)-phenyl]-amide], the half-inhibitory concentration (IC50) is less than 100 nM under setting [3], less than 1000 nM under setting [1] and 21.1 nM under setting [2].
Taken in the same sequence, the figures for `Cc1ncnc2c(C(=O)Nc3c(Cl)ccc(NS(=O)(=O)CCCF)c3Cl)csc12` [Example 39, 4-Methyl-thieno[3,2-d]pyrimidine-7-carboxylic acid [2,6-dichloro-3-(3-fluoro-propane-1-sulfonylamino)-phenyl]-amide] were less than 100 nM, less than 1000 nM and 1.11 nM.
For `O=C(Nc1c(F)ccc(NS(=O)(=O)CCCF)c1F)c1csc2cncnc12` [Example 109, Thieno[3,2-d]pyrimidine-7-carboxylic acid [2,6-difluoro-3-(3-fluoro-propane-1-sulfonyl-amino)-phenyl]-amide], the IC50 is less than 100 nM under setting [3], less than 1000 nM under setting [1] and 40.3 nM under setting [2].
The corresponding values for `CCCS(=O)(=O)Nc1ccc(F)c(NC(=O)c2csc3c(Nc4ccccc4)ncnc23)c1F` [Example 63, 4-Phenylamino-thieno[3,2-d]pyrimidine-7-carboxylic acid [2,6-difluoro-3-(propane-1-sulfonylamino)-phenyl]-amide] are less than 100 nM, less than 1000 nM and 35.4 nM.
As for `Nc1ncnc2c(C(=O)Nc3c(F)c(F)cc(NS(=O)(=O)CCCF)c3F)csc12` [Example 10, 4-Amino-thieno[3,2-d]pyrimidine-7-carboxylic acid[2,3,6-trifluoro-5-(3-fluoro-propane-1-sulfonylamino)-phenyl]-amide], the IC50 is, setting by setting: under setting [3], less than 100 nM; under setting [1], less than 1000 nM; under setting [2], 0.72 nM.
Taken in the same sequence, the figures for `CC(C)CS(=O)(=O)Nc1ccc(F)c(NC(=O)c2csc3c(N)ncnc23)c1F` [Example 19, 4-Amino-thieno[3,2-d] pyrimidine-7-carboxylic acid [2,6-difluoro-3-(2-methyl-propane-1-sulfonylamino)-phenyl]-amide] were less than 100 nM, less than 1000 nM and 2.6 nM.
Take `CCCS(=O)(=O)Nc1ccc(Cl)c(NC(=O)c2csc3c(NC4CCC(F)(F)CC4)ncnc23)c1Cl` [Example 80, 4-(4,4-Difluoro-cyclohexyl-amino)-thieno[3,2-d] pyrimidine-7-carboxylic acid [2,6-dichloro-3-(propane-1-sulfonyl-amino)-phenyl]-amide]: the IC50 reads like this: under setting [1], less than 1000 nM; under setting [2], 419 nM.
For `Nc1ncnc2c(C(=O)Nc3c(F)ccc(NS(=O)(=O)CCCF)c3F)csc12` [Example 14, 4-Amino-thieno[3,2-d] pyrimidine-7-carboxylic acid [2,6-difluoro-3-(3-fluoro-propane-1-sulfonylamino)-phenyl]-amide], the IC50 by setting is: under setting [3], less than 100 nM; under setting [1], less than 1000 nM; under setting [2], 0.6 nM.
The corresponding values for `O=C(Nc1c(Cl)ccc(NS(=O)(=O)CCCF)c1F)c1nsc2cncnc12` [Example 112, Isothiazolo[4,5-d] pyrimidine-3-carboxylic acid [6-chloro-2-fluoro-3-(3-fluoro-propane-1-sulfonylamino)-phenyl]-amide] are less than 100 nM, less than 1000 nM and 7.29 nM.
Regarding `CCCS(=O)(=O)Nc1ccc(Cl)c(NC(=O)c2csc3cncnc23)c1Cl` [Example 107, Thieno[3,2-d]pyrimidine-7-carboxylic acid [2,6-dichloro-3-(propane-1-sulfonylamino)-phenyl]-amide], the IC50 under setting [3] was less than 100 nM, the IC50 under setting [1] is less than 1000 nM and the half-maximal inhibitory concentration (IC50) under setting [2] was 9.6 nM.
Taken in the same sequence, the figures for `CCCS(=O)(=O)Nc1cc(F)c(F)c(NC(=O)c2csc3c(NN4CCOCC4)ncnc23)c1F` [Example 95, 4-(Morpholin-4-ylamino)-thieno[3,2-d] pyrimidine-7-carboxylic acid [2,3,6-trifluoro-5-(propane-1-sulfonyl-amino)-phenyl]-amide] were less than 100 nM, less than 1000 nM and 5.09 nM.
Taken in the same sequence, the figures for `Nc1ncnc2c(C(=O)Nc3c(F)ccc(NS(=O)(=O)CC4CC4)c3Cl)csc12` [Example 16, 4-Amino-thieno[3,2-d] pyrimidine-7-carboxylic acid (2-chloro-3-cycloprop-ylmethanesulfonyl-amino-6-fluoro-phenyl)-amide] were less than 100 nM, less than 1000 nM and 1.9 nM.
Turning to `CCCS(=O)(=O)Nc1ccc(F)c(NC(=O)c2csc3cncnc23)c1F` [Example 108, Thieno[3,2-d]pyrimidine-7-carboxylic acid [2,6-difluoro-3-(propane-1-sulfonylamino)-phenyl]-amide], the IC50 by setting is: under setting [1], less than 1000 nM; under setting [2], 288 nM.
For `CCCS(=O)(=O)Nc1cc(F)c(F)c(NC(=O)c2csc3c(NCC(F)F)ncnc23)c1F` [Example 90, 4-(2,2-Difluoro-ethylamino)-thieno[3,2-d] pyrimidine-7-carboxylic acid [2,3,6-trifluoro-5-(propane-1-sulfonyl-amino)-phenyl]-amide], the IC50 was less than 100 nM under setting [3], less than 1000 nM under setting [1] and 16 nM under setting [2].
With `CCCS(=O)(=O)Nc1ccc(F)c(NC(=O)c2c[nH]c3c(NOC)ncnc23)c1F` [Example 105, 4-Methoxyamino-5H-pyrrolo[2-d]pyrimidine-7-carboxylic acid [2,6-difluoro-3-(propane-1-sulfonylamino)-phenyl]-amide], the IC50 runs as follows: under setting [1], less than 1000 nM; under setting [2], 112 nM.
The corresponding values for `CCCS(=O)(=O)Nc1ccc(F)c(NC(=O)c2snc3c(NC4CC4)ncnc23)c1F` [Example 36, 7-(Cyclopropylamino)-N-(2,6-difluoro-3-(propylsulfonamido)phenyl)isothiazolo[4,3-d]pyrimidine-3-carboxamide] are less than 1000 nM and 194 nM.
Regarding `O=C(Nc1c(F)c(F)cc(NS(=O)(=O)CCCF)c1F)c1csc2c(NC3CC3)ncnc12` [Example 97, 4-Cyclopropyl-amino-thieno [3,2-d] pyrimidine-7-carboxylic acid [2,3,6-trifluoro-5-(3-fluoro-propane-1-sulfonyl-amino)-phenyl]-amide], the concentration for half-maximal inhibition (IC50) under setting [3] is less than 100 nM, the IC50 under setting [1] was less than 1000 nM and the half-maximal inhibitory concentration (IC50) under setting [2] was 0.71 nM.
The corresponding values for `CCCS(=O)(=O)Nc1cc(F)c(F)c(NC(=O)c2csc3c(NC4CC4)ncnc23)c1F` [Example 86, 4-Cyclopropyl-amino-thieno [3,2-d] pyrimidine-7-carboxylic acid [2,3,6-trifluoro-5-(propane-1-sulfonyl-amino)-phenyl]-amide] are less than 100 nM, less than 1000 nM and 1.2 nM.
Consider `CCCS(=O)(=O)Nc1ccc(F)c(NC(=O)c2csc3c(NCCO)ncnc23)c1F` [Example 59, 4-(2-Hydroxy-ethylamino)-thieno[3,2-d] pyrimidine-7-carboxylic acid [2,6-difluoro-3-(propane-1-sulfonylamino)-phenyl]-amide], for which the half-maximal inhibitory concentration (IC50) runs as follows: under setting [3], less than 100 nM; under setting [1], less than 1000 nM; under setting [2], 57.1 nM.
The corresponding values for `CCCS(=O)(=O)Nc1ccc(F)c(NC(=O)c2csc3c(C)ncnc23)c1Cl` [Example 38, 4-Methyl-thieno[3,2-d]pyrimidine-7-carboxylic acid [2-chloro-6-fluoro-3-(propane-1-sulfonylamino)-phenyl]-amide] are less than 100 nM, less than 1000 nM and 46.5 nM.
In the case of `Nc1ncnc2c(C(=O)Nc3c(F)ccc(NS(=O)(=O)N4CCCC4)c3F)csc12` [Example 28, 4-Amino-thieno[3,2-d]pyrimidine-7-carboxylic acid[2,6-difluoro-3-(pyrrolidine-1-sulfonylamino)-phenyl]-amide], the IC50 is, setting by setting: under setting [3], less than 100 nM; under setting [1], less than 1000 nM; under setting [2], 11.6 nM.
